Source: the supplement of paper PMC11208160

experiment: recombinant UMI read abundance after kanamycin selection (control-corrected) (log10(CPM+1)); higher = more efficient recombination; extreme values may be limits of the assay; sequences stand for … in AGTGCAGAGAAAATCGGCCAGTTTTCTCTGCCTGCAGTCCGCATGCCGTGGGACCCCTTGGGTTCTAACCTGTTGCCTAGATTTATGCAGCGGACTGCCTTTCTCCCAAAGTGATAAACCGG…AGGTTGGTTTCACT; site = the 11-nt donor
Procedure, shortened: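 Counts of recombinant UMIs were reported as log10(CPM+1). Before that, they were converted to CPM, averaged over replicates and scaled using control-derived factors. They came from PCR across the donor–target junction after Escherichia coli carrying the pair library and target plasmid was plated on IPTG (0.07 mM) plus kanamycin, or unselected, in two replicates each.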
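Further: IS621 bridge recombinase in Escherichia coli cells against a fixed T5 target plasmid.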

Sequence | recombinant UMI read abundance (log10)
GTAGGTACATGGACCGGTTTTCCCGGTAATCCGTATTTGAC (site ATAGGTACTGT) | 2.02
GTAGGTACATGGACCGGTTTTCCCGGTAATCCGTATTTGAC (site CTAGGTACTGT) | 1.95
GTAGGTACATGGACCGGTTTTCCCGGTAATCCGTATTTGAC (site GAAGGTACTGT) | 0
GTAGGTACATGGACCGGTTTTCCCGGTAATCCGTATTTGAC (site GCAGGTACTGT) | 0.704
GTAGGTACATGGACCGGTTTTCCCGGTAATCCGTATTTGAC (site GGAGGTACTGT) | 0
GTAGGTACATGGACCGGTTTTCCCGGTAATCCGTATTTGAC (site GTAAGTACTGT) | 1.98
GTAGGTACATGGACCGGTTTTCCCGGTAATCCGTATTTGAC (site GTACGTACTGT) | 0.584
GTAGGTACATGGACCGGTTTTCCCGGTAATCCGTATTTGAC (site GTAGATACTGT) | 1.54
GTAGGTACATGGACCGGTTTTCCCGGTAATCCGTATTTGAC (site GTAGCTACTGT) | 0.853
GTAGGTACATGGACCGGTTTTCCCGGTAATCCGTATTTGAC (site GTAGGAACTGT) | 1.59
GTAGGTACATGGACCGGTTTTCCCGGTAATCCGTATTTGAC (site GTAGGCACTGT) | 2.64
GTAGGTACATGGACCGGTTTTCCCGGTAATCCGTATTTGAC (site GTAGGGACTGT) | 1.8
GTAGGTACATGGACCGGTTTTCCCGGTAATCCGTATTTGAC (site GTAGGTACTAT) | 2.23
GTAGGTACATGGACCGGTTTTCCCGGTAATCCGTATTTGAC (site GTAGGTACTCT) | 0.304
GTAGGTACATGGACCGGTTTTCCCGGTAATCCGTATTTGAC (site GTAGGTACTGA) | 1.23
GTAGGTACATGGACCGGTTTTCCCGGTAATCCGTATTTGAC (site GTAGGTACTGC) | 1.5
GTAGGTACATGGACCGGTTTTCCCGGTAATCCGTATTTGAC (site GTAGGTACTGG) | 0.351
GTAGGTACATGGACCGGTTTTCCCGGTAATCCGTATTTGAC (site GTAGGTACTGT) | 2.01
GTAGGTACATGGACCGGTTTTCCCGGTAATCCGTATTTGAC (site GTAGGTACTTT) | 0
GTAGGTACATGGACCGGTTTTCCCGGTAATCCGTATTTGAC (site GTAGGTCCTGT) | 0
GTAGGTACATGGACCGGTTTTCCCGGTAATCCGTATTTGAC (site GTAGGTGCTGT) | 2.02
GTAGGTACATGGACCGGTTTTCCCGGTAATCCGTATTTGAC (site GTAGGTTCTGT) | 1.76
GTAGGTACATGGACCGGTTTTCCCGGTAATCCGTATTTGAC (site GTAGTTACTGT) | 1.2
GTAGGTACATGGACCGGTTTTCCCGGTAATCCGTATTTGAC (site GTATGTACTGT) | 0.986
GTAGGTACATGGACCGGTTTTCCCGGTAATCCGTATTTGAC (site GTCGGTACTGT) | 1.16
GTAGGTACATGGACCGGTTTTCCCGGTAATCCGTATTTGAC (site GTGGGTACTGT) | 2.19

Sequence | recombinant UMI read abundance (log10)
GTAGGTACATGGACCGGTTTTCCCGGTAATCCGTATTTGAC (site GTTGGTACTGT) | 1.96
GTAGGTACATGGACCGGTTTTCCCGGTAATCCGTATTTGAC (site TTAGGTACTGT) | 1.65
GTAGGTACATGGACCGGTTTTCCCGGTAATCCGTATTTGAG (site GTAGGTACTAT) | 0.994
GTAGGTACATGGACCGGTTTTCCCGGTAATCCGTATTTGAG (site GTAGGTACTCT) | 1.29
GTAGGTACATGGACCGGTTTTCCCGGTAATCCGTATTTGAG (site GTAGGTACTGT) | 1.42
GTAGGTACATGGACCGGTTTTCCCGGTAATCCGTATTTGAG (site GTAGGTACTTT) | 0.806
GTAGGTACATGGACCGGTTTTCCCGGTAATCCGTATTTGAT (site GTAGGTACTAT) | 1.87
GTAGGTACATGGACCGGTTTTCCCGGTAATCCGTATTTGAT (site GTAGGTACTCT) | 0.18
GTAGGTACATGGACCGGTTTTCCCGGTAATCCGTATTTGAT (site GTAGGTACTGT) | 0.596
GTAGGTACATGGACCGGTTTTCCCGGTAATCCGTATTTGAT (site GTAGGTACTTT) | 0.00769
GTAGTACCATGGACCGGTTTTCCCGGTAATCCGTATTTGAC (site CTAGTATCTGT) | 0
GTAGTACCATGGACCGGTTTTCCCGGTAATCCGTATTTGAC (site GTAGTACCTGT) | 0
GTAGTCACATGGACCGGTTTTCCCGGTAATCCGTATTTGCG (site GTAGTCACTCG) | 2.1
GTAGTCACATGGACCGGTTTTCCCGGTAATCCGTATTTGCG (site GTAGTCCCTCG) | 0.0197
GTAGTCACATGGACCGGTTTTCCCGGTAATCCGTATTTGCG (site GTAGTCGCTCG) | 1.67
GTAGTCACATGGACCGGTTTTCCCGGTAATCCGTATTTGCG (site GTAGTCTCTCG) | 2.62
GTAGTGGCATGGACCGGTTTTCCCGGTAATCCGTATTTGCG (site GTAGTAGCTCG) | 2.37
GTAGTGGCATGGACCGGTTTTCCCGGTAATCCGTATTTGCG (site GTAGTCGCTCG) | 1.25
GTAGTGGCATGGACCGGTTTTCCCGGTAATCCGTATTTGCG (site GTAGTGGCTCG) | 2.18
GTAGTGGCATGGACCGGTTTTCCCGGTAATCCGTATTTGCG (site GTAGTTGCTCG) | 2.06
GTATACCCATGGACCGGTTTTCCCGGTAATCCGTATTTGTC (site GTATACCCTGA) | 1.03
GTATAGTCATGGACCGGTTTTCCCGGTAATCCGTATTTGGT (site GTATAGTCTAC) | 2.67
GTATCGTCATGGACCGGTTTTCCCGGTAATCCGTATTTGTC (site GTATCGTCTGA) | 3.21
GTATGACCATGGACCGGTTTTCCCGGTAATCCGTATTTGGC (site GTATGACCTGC) | 0
GTATGCACATGGACCGGTTTTCCCGGTAATCCGTATTTGAA (site GTATGCACTTA) | 0.217
GTATGCACATGGACCGGTTTTCCCGGTAATCCGTATTTGAA (site GTATGCACTTC) | 0.0775
